Test results published in PubChem BioAssay AID1259407 (Chemical Carcinogenesis Research Information System (CCRIS), 2018).
Activity calls are given as the source filed them. No rule for the calls is given here.

Test system: CCRIS mutagenicity, Ames/micronucleus/aberration tests
Experiment: CCRIS mutagenicity studies
[1] = Test System: AMES SALMONELLA TYPHIMURIUM, Strain/Indicator: TA98, Metabolic Activation: NONE, Method: STANDARD PLATE
[2] = Test System: AMES SALMONELLA TYPHIMURIUM, Strain/Indicator: TA98, Metabolic Activation: RAT, LIVER, S-9, AROCLOR 1254, Method: STANDARD PLATE
[3] = Test System: AMES SALMONELLA TYPHIMURIUM, Strain/Indicator: TA100, Metabolic Activation: NONE, Method: STANDARD PLATE
[4] = Test System: AMES SALMONELLA TYPHIMURIUM, Strain/Indicator: TA100, Metabolic Activation: RAT, LIVER, S-9, AROCLOR 1254, Method: STANDARD PLATE
[5] = Test System: AMES SALMONELLA TYPHIMURIUM, Strain/Indicator: TA1537, Metabolic Activation: NONE, Method: STANDARD PLATE

Nc1nc(Cl)cc(Cl)n1
mutagenic call (Test System: AMES SALMONELLA TYPHIMURIUM, Strain/Indicator: TA98, Metabolic Activation: HAMSTER, LIVER, S-9, AROCLOR 1254, Method: STANDARD PLATE): inactive; negative | mutagenic call [1]: inactive; negative | mutagenic call [2]: inactive; negative | mutagenic call (Test System: AMES SALMONELLA TYPHIMURIUM, Strain/Indicator: TA100, Metabolic Activation: HAMSTER, LIVER, S-9, AROCLOR 1254, Method: STANDARD PLATE): inactive; negative | mutagenic call [3]: inactive; negative | mutagenic call [4]: inactive; negative | mutagenic call (Test System: AMES SALMONELLA TYPHIMURIUM, Strain/Indicator: TA1535, Metabolic Activation: HAMSTER, LIVER, S-9, AROCLOR 1254, Method: STANDARD PLATE): inactive; negative | mutagenic call (Test System: AMES SALMONELLA TYPHIMURIUM, Strain/Indicator: TA1535, Metabolic Activation: NONE, Method: STANDARD PLATE): inactive; negative | mutagenic call (Test System: AMES SALMONELLA TYPHIMURIUM, Strain/Indicator: TA1535, Metabolic Activation: RAT, LIVER, S-9, AROCLOR 1254, Method: STANDARD PLATE): inactive; negative | mutagenic call (Test System: AMES SALMONELLA TYPHIMURIUM, Strain/Indicator: TA1537, Metabolic Activation: HAMSTER, LIVER, S-9, AROCLOR 1254, Method: STANDARD PLATE): inactive; negative | mutagenic call [5]: inactive; negative | mutagenic call (Test System: AMES SALMONELLA TYPHIMURIUM, Strain/Indicator: TA1537, Metabolic Activation: RAT, LIVER, S-9, AROCLOR 1254, Method: STANDARD PLATE): inactive; negative | mutagenic call (Test System: AMES SALMONELLA TYPHIMURIUM, Strain/Indicator: TA1538, Metabolic Activation: HAMSTER, LIVER, S-9, AROCLOR 1254, Method: STANDARD PLATE): inactive; negative | mutagenic call (Test System: AMES SALMONELLA TYPHIMURIUM, Strain/Indicator: TA1538, Metabolic Activation: NONE, Method: STANDARD PLATE): inactive; negative | mutagenic call (Test System: AMES SALMONELLA TYPHIMURIUM, Strain/Indicator: TA1538, Metabolic Activation: RAT, LIVER, S-9, AROCLOR 1254, Method: STANDARD PLATE): inactive; negative | mutagenic call (Test System: MOUSE LYMPHOMA, Strain/Indicator: L5178Y (TK+/TK-), Metabolic Activation: NONE, Method: SUSPENSION/PLATE): active; positive. reevaluation of results: positive | mutagenic call (Test System: MOUSE LYMPHOMA, Strain/Indicator: L5178Y (TK+/TK-), Metabolic Activation: RAT, LIVER, S-9, AROCLOR 1254, Method: SUSPENSION/PLATE): active; positive. reevaluation of results: inconclusive

Cc1cc(C)c2c(ccc3ccccc32)c1
mutagenic call [1]: inactive; negative | mutagenic call [2]: inactive; negative | mutagenic call [3]: inactive; negative | mutagenic call [4]: active; positive

Cn1c([N+](=O)[O-])nc2ncc(-c3ccccc3)cc21
mutagenic call (Test System: AMES SALMONELLA TYPHIMURIUM, Strain/Indicator: TA98(1,8-DNP6), Metabolic Activation: NONE, Method: PREINCUBATION): active; positive | mutagenic call (Test System: AMES SALMONELLA TYPHIMURIUM, Strain/Indicator: TA98(NR), Metabolic Activation: NONE, Method: PREINCUBATION): active; positive | mutagenic call (Test System: AMES SALMONELLA TYPHIMURIUM, Strain/Indicator: TA98, Metabolic Activation: NONE, Method: PREINCUBATION): active; positive | mutagenic call (Test System: AMES SALMONELLA TYPHIMURIUM, Strain/Indicator: YG1024, Metabolic Activation: NONE, Method: PREINCUBATION): active; positive

O=CNc1ccc(Oc2ccc(Cl)cc2Cl)cc1
mutagenic call [3]: inactive; negative | mutagenic call (Test System: AMES SALMONELLA TYPHIMURIUM, Strain/Indicator: TA100, Metabolic Activation: RAT, LIVER, S-9, KANECLOR 500, Method: STANDARD PLATE): active; positive

CC[C@@H](CO)NCCN[C@@H](CC)CO
mutagenic call [1]: inactive; negative | mutagenic call (Test System: AMES SALMONELLA TYPHIMURIUM, Strain/Indicator: TA98, Metabolic Activation: S-9, Method: STANDARD PLATE): inactive; negative | mutagenic call [3]: inactive; negative | mutagenic call (Test System: AMES SALMONELLA TYPHIMURIUM, Strain/Indicator: TA100, Metabolic Activation: S-9, Method: STANDARD PLATE): inactive; negative

CN(C)CCNC(=O)c1cccn2c(=O)c3ccccc3nc12
mutagenic call [5]: active; positive
